# Where two headings read alike, the source gives them in different places.
# Key:
# [1] = test system: cancer stem cells; assay: Survival rate of cancer stem cells after test compound is added (flow cytometry, Annexin V-FITC/PI, clinical specimen); format: cell-based, patient; details: Homo sapiens, 18 h
# Summary of the method: (§1)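 Mononuclear cells from fresh or cryopreserved clinical samples, isolated by Ficoll gradient and held in serum-free IMDM (1×10^6/mL), received compound for 18 h. After labelling with marker antibodies (CD34+CD38+ for AML), Annexin V-FITC and PI staining was analysed by flow cytometry.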
# [2] = test system: cancer cells; assay: Survival rate of cancer cells after test compound is added (flow cytometry, Annexin V-FITC/PI, clinical specimen); format: cell-based, patient; details: Homo sapiens, 18 h, read-out: Survival rate (%) All cells (Stem cells and ordinary cells)
# Summary of the method: as §1
# [3] = test system: PGE2 secreted by synoviocyte; assay: Content of PGE2 in culture supernatant of synoviocyte of RA model rats given test compound; format: in vivo; details: rat RA model, dose 30 mg/kg.2d; normal control 8.34 ± 1.29, NaCl 32.44 ± 10.32
# Summary of the method: (§2)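 Read-out: TNF-α, PGE2 and IL-1β levels in supernatant from cultured synoviocytes. Cells came from RA model rats treated with compound at 30 mg/kg.2d, and from NaCl-treated and normal control rats.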
# [4] = test system: IL-1β secreted by synoviocyte; assay: Content of IL-1β in culture supernatant of synoviocyte of RA model rats given test compound; format: in vivo; details: rat RA model, dose 30 mg/kg.2d; normal control 0.16 ± 0.034, NaCl 0.49 ± 0.136
# Summary of the method: as §2
# [5] = test system: normal cells; assay: Survival rate of normal cells after test compound is added (flow cytometry, Annexin V-FITC/PI); format: cell-based; details: 18 h
# Summary of the method: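 Steps: density-gradient isolation of mononuclear cells from fresh or cryopreserved clinical samples; 18-hour compound exposure at 1×10^6 cells/mL; staining for stem-cell surface markers, then Annexin V-FITC and PI; flow cytometric apoptosis analysis.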
# [6] = Head and neck squamous cell carcinomas
# [7] = read-out: Survival rate (%) All cells (Stem cells and ordinary cells)
# [8] = read-out: Survival rate (%) Stem cells
smiles,measurement,setting,value
C=C1C(=O)O[C@H]2[C@H]1CC[C@]1(C)O[C@@]13CC[C@@](C)(O)[C@H]23 [Compound 24],viability at 10 µM,[1]; AML,48%
same,viability at 20 µM,[1]; AML,39%
same,viability at 10 µM,[1]; Brain glioma,52%
same,viability at 20 µM,[1]; Brain glioma,42%
same,viability at 10 µM,[1]; Brain tumor,66%
same,viability at 20 µM,[1]; Brain tumor,54%
same,viability at 10 µM,[1]; Breast cancer,54%
same,viability at 20 µM,[1]; Breast cancer,47%
same,viability at 10 µM,[1]; CLL,48%
same,viability at 20 µM,[1]; CLL,39%
same,viability at 10 µM,[1]; CML,51%
same,viability at 20 µM,[1]; CML,46%
same,viability at 10 µM,[1]; Children hepatoblastoma,67%
same,viability at 20 µM,[1]; Children hepatoblastoma,57%
same,viability at 10 µM,[1]; Colon adenocarcinoma,58%
same,viability at 20 µM,[1]; Colon adenocarcinoma,49%
same,viability at 10 µM,[1]; Colorectal cancer,66%
same,viability at 20 µM,[1]; Colorectal cancer,55%
same,viability at 10 µM,[1]; Gastric cancer,51%
same,viability at 20 µM,[1]; Gastric cancer,39%
same,viability at 10 µM,[1]; Gastrointestinal tumor,56%
same,viability at 20 µM,[1]; Gastrointestinal tumor,51%
same,viability at 10 µM,[1]; Glioma,69%
same,viability at 20 µM,[1]; Glioma,60%
same,viability at 10 µM,[1]; [6],64%
same,viability at 20 µM,[1]; [6],57%
same,viability at 10 µM,[1]; Laryngeal cancer,65%
same,viability at 20 µM,[1]; Laryngeal cancer,55%
same,viability at 10 µM,[1]; Liver cancer,74%
same,viability at 20 µM,[1]; Liver cancer,61%
same,viability at 10 µM,[1]; Lung adenocarcinoma,68%
same,viability at 20 µM,[1]; Lung adenocarcinoma,55%
same,viability at 10 µM,[1]; Lung cancer,61%
same,viability at 20 µM,[1]; Lung cancer,54%
same,viability at 10 µM,[1]; Malignant melanoma,81%
same,viability at 20 µM,[1]; Malignant melanoma,76%
same,viability at 10 µM,[1]; Nasopharynx cancer,57%
same,viability at 20 µM,[1]; Nasopharynx cancer,48%
same,viability at 10 µM,[1]; Ovarian cancer,57%
same,viability at 20 µM,[1]; Ovarian cancer,45%
same,viability at 10 µM,[1]; Pancreatic cancer,55%
same,viability at 20 µM,[1]; Pancreatic cancer,49%
same,viability at 10 µM,[1]; Prostate cancer,61%
same,viability at 20 µM,[1]; Prostate cancer,51%
same,viability at 10 µM,[1]; Retinoblastoma,62%
same,viability at 20 µM,[1]; Retinoblastoma,54%
same,viability at 10 µM,[1]; Skin cancer,46%
same,viability at 20 µM,[1]; Skin cancer,39%
same,viability at 10 µM,[2]; AML,59%
same,viability at 20 µM,[2]; AML,48%
same,viability at 10 µM,[2]; Brain glioma,65%
same,viability at 20 µM,[2]; Brain glioma,53%
same,viability at 10 µM,[2]; Brain tumor,74%
same,viability at 20 µM,[2]; Brain tumor,69%
same,viability at 10 µM,[2]; Breast cancer,77%
same,viability at 20 µM,[2]; Breast cancer,58%
same,viability at 10 µM,[2]; CLL,67%
same,viability at 20 µM,[2]; CLL,48%
same,viability at 10 µM,[2]; CML,69%
same,viability at 20 µM,[2]; CML,51%
same,viability at 10 µM,[2]; Children hepatoblastoma,75%
same,viability at 20 µM,[2]; Children hepatoblastoma,68%
same,viability at 10 µM,[2]; Colon adenocarcinoma,66%
same,viability at 20 µM,[2]; Colon adenocarcinoma,57%
same,viability at 10 µM,[2]; Colorectal cancer,78%
same,viability at 20 µM,[2]; Colorectal cancer,67%
same,viability at 10 µM,[2]; Gastric cancer,66%
same,viability at 20 µM,[2]; Gastric cancer,48%
same,viability at 10 µM,[2]; Gastrointestinal tumor,72%
same,viability at 20 µM,[2]; Gastrointestinal tumor,62%
same,viability at 10 µM,[2]; Glioma,78%
same,viability at 20 µM,[2]; Glioma,74%
same,viability at 10 µM,[2]; [6],76%
same,viability at 20 µM,[2]; [6],68%
same,viability at 10 µM,[2]; Laryngeal cancer,75%
same,viability at 20 µM,[2]; Laryngeal cancer,66%
same,viability at 10 µM,[2]; Liver cancer,82%
same,viability at 20 µM,[2]; Liver cancer,72%
same,viability at 10 µM,[2]; Lung adenocarcinoma,78%
same,viability at 20 µM,[2]; Lung adenocarcinoma,64%
same,viability at 10 µM,[2]; Lung cancer,72%
same,viability at 20 µM,[2]; Lung cancer,66%
same,viability at 10 µM,[2]; Malignant melanoma,88%
same,viability at 20 µM,[2]; Malignant melanoma,86%
same,viability at 10 µM,[2]; Nasopharynx cancer,64%
same,viability at 20 µM,[2]; Nasopharynx cancer,59%
same,viability at 10 µM,[2]; Ovarian cancer,68%
same,viability at 20 µM,[2]; Ovarian cancer,61%
same,viability at 10 µM,[2]; Pancreatic cancer,68%
same,viability at 20 µM,[2]; Pancreatic cancer,62%
same,viability at 10 µM,[2]; Prostate cancer,75%
same,viability at 20 µM,[2]; Prostate cancer,62%
same,viability at 10 µM,[2]; Retinoblastoma,82%
same,viability at 20 µM,[2]; Retinoblastoma,69%
same,viability at 10 µM,[2]; Skin cancer,62%
same,viability at 20 µM,[2]; Skin cancer,47%
same,Content of PGE2 in culture supernatant of synoviocyte (x ± s),[3],23.63 ± 1.35 ng/mL
same,Content of IL-1β in culture supernatant of synoviocyte (x ± s),[4],0.37 ± 0.051 ng/mL
same,viability at 10 µM,[5]; [7],93%
same,viability at 10 µM,[5]; [8],92%
same,viability at 20 µM,[5]; [7],92%
same,viability at 20 µM,[5]; [8],90%
